Measured values as given in article PMC7689752 (Clinical Pharmacology and Therapeutics, 2020).

Columns and labels:
[1] = set-up: species or system human; settings: prediction for high-clearance drugs, not studied here
[2] = Integrated population pharmacokinetic model; assay type: in vivo, human; settings: for PNA on Cl: increase of clearance per hour of postnatal age, first 5 days of life; for Decrease of clearance during TH compared with normothermia: 33.5°C vs 36.5°C; for TEMP on Cl: reduction of clearance per °C of body temperature below 36.5°C
[3] = interindividual variability in clearance, common eta

Row | Structure (SMILES) | PNA on Cl [2] | Correlation in clearance with Midazolam [2, 3] | Correlation in clearance with Morphine [2, 3] | Correlation in clearance with OHM [2, 3] | also measured
1 | N=C1N[C@H]2[C@H](CS[C@H]2CCCCC(=O)O)N1 [2‐iminobiotin] | – | – | – | – | Expected change of clearance with PNA [1]: The same prediction can be made
2 | CC1(C)S[C@@H]2[C@H](NC(=O)[C@H](N)c3ccc(O)cc3)C(=O)N2[C@H]1C(=O)O [Amoxicillin, amoxicillin] | 1.23 %/h | – | – | – | –
3 | CC1(C)S[C@@H]2[C@H](NC(=O)Cc3ccccc3)C(=O)N2[C@H]1C(=O)O [Benzylpenicillin, benzylpenicillin] | 1.23 %/h | 52.8% | 58.6% | 53.4% | Correlation in clearance with Amoxicillin [2, 3]: 35.5%; Correlation in clearance with HMG [2, 3]: 52.8%; Correlation in clearance with M6G [2, 3]: 27.4%
4 | CNC(C)C1CCC(N)C(OC2C(N)CC(N)C(OC3OCC(C)(O)C(NC)C3O)C2O)O1 (stereo not shown) [Gentamicin, gentamicin] | 1.23 %/h | 41.4% | 45.9% | 41.8% | Correlation in clearance with Amoxicillin [2, 3]: 27.9%; Correlation in clearance with Benzylpenicillin [2, 3]: 38.8%; Correlation in clearance with HMG [2, 3]: 41.4%; Correlation in clearance with M3G [2, 3]: 23.4%; Correlation in clearance with M6G [2, 3]: 21.5%
5 | O=C(O)[C@H]1O[C@@H](OCc2ncc3n2-c2ccc(Cl)cc2C(c2ccccc2F)=NC3)[C@H](O)[C@@H](O)[C@@H]1O [HMG, hydroxymidazolam glucuronide] | 1.23 %/h | 56.4% | 62.6% | 57.0% | Correlation in clearance with M3G [2, 3]: 31.9%; Correlation in clearance with M6G [2, 3]: 29.3%
6 | CN1CC[C@]23c4c5ccc(O[C@@H]6O[C@H](C(=O)O)[C@@H](O)[C@H](O)[C@H]6O)c4O[C@H]2[C@@H](O)C=C[C@H]3[C@H]1C5 [M3G, morphine‐3‐glucuronide] | 1.23 %/h | 31.9% | 35.4% | 32.2% | –
7 | CN1CC[C@]23c4c5ccc(O)c4O[C@H]2[C@@H](O[C@@H]2O[C@H](C(=O)O)[C@@H](O)[C@H](O)[C@H]2O)C=C[C@H]3[C@H]1C5 [M6G, morphine‐6‐glucuronide] | 1.23 %/h | 29.3% | 32.5% | 29.6% | Correlation in clearance with M3G [2, 3]: 94.8%
8 | CCNCC(=O)Nc1c(C)cccc1C [MEGX, monoethylglycinexylidide] | 1.23 %/h | – | – | – | –
9 | Cc1ncc2n1-c1ccc(Cl)cc1C(c1ccccc1F)=NC2 [Midazolam, midazolam] | 0.540 %/h | – | 62.2% | – | Decrease of clearance during TH compared with normothermia [2]: 20.5%; TEMP on Cl [2]: 6.83 %/°C
10 | OCc1ncc2n1-c1ccc(Cl)cc1C(c1ccccc1F)=NC2 [OHM, 1‐hydroxymidazolam] | 0.540 %/h | 57.0% | 63.3% | – | Decrease of clearance during TH compared with normothermia [2]: 20.5%; TEMP on Cl [2]: 6.83 %/°C
11 | CCC1(c2ccccc2)C(=O)NC(=O)NC1=O [Phenobarbital, phenobarbital] | – | – | – | – | PNA as covariate on clearance (in words) ([2]; recovery of organ function): No effect of PNA was identified
12 | Oc1ncnc2[nH]ncc12 [allopurinol] | – | – | – | – | Expected change of clearance with PNA [1]: The same prediction can be made
13 | CC[C@@H](C(N)=O)N1CCCC1=O [levetiracetam] | – | – | – | – | Expected change of clearance with PNA [1]: clearance increases strongly with PNA
